One data set has as its system P. falciparum K1 strain. It counts as cell-based. The settings on record: Plasmodium falciparum, K1, read-out: IC50 P. falciparum BS.
The test system of data set [1] is P. yoelii liver stages (PyGFP sporozoites). Nature of the data set: Liver stage growth inhibition, flow cytometric. It counts as cell-based. The settings on record: Plasmodium yoelii, 43 h, read-out: IC50 P. yoelii LS FC. Background: A flow cytometer gives signals particle by particle.
Another data set deals with P. yoelii liver stages. Nature of the data set: Liver stage growth inhibition, immunofluorescence analysis. Particulars: Plasmodium yoelii, 43 h, read-out: IC50 P. yoelii LS IFA. It is filed as cell-based.
The target of a further data set is T1, PfFabI (Plasmodium falciparum, UniProt Q9BH77).
T1 sequence (Q9BH77 22-432): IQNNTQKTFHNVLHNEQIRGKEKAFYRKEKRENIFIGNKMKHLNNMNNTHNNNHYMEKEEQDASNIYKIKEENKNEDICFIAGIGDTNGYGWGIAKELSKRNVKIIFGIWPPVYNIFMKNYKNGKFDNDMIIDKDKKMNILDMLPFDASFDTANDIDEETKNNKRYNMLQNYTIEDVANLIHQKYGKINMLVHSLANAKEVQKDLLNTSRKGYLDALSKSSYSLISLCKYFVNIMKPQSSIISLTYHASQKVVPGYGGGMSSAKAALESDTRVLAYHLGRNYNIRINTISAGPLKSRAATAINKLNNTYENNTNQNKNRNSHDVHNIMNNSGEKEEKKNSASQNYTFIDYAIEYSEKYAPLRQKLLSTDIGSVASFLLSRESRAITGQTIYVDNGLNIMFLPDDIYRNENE
Nature of the data set: biochemical. It counts as biochemical. Particulars: for Ki: Ki PfFabI.

The next data set deals with T2, PfFabZ (Plasmodium falciparum, UniProt Q965D7).
T2 sequence (Q965D7 19-230): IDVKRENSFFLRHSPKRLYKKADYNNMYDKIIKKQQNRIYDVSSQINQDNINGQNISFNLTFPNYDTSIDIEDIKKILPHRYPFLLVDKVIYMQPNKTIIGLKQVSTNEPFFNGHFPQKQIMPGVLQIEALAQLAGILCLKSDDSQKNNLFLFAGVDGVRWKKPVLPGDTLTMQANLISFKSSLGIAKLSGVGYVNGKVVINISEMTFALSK
Nature of the data set: biochemical. It is filed as biochemical.

The target in a further data set is PfFabG (Plasmodium falciparum, UniProt Q8I2S7). Nature of the data set: biochemical. It counts as biochemical.
In data set [2] the test system is L. donovani strain MHOM/ET/67/L82. Nature of the data set: Leishmanicidal activity, axenic amastigotes. It is filed as cell-based. The settings on record: Leishmania donovani, 72 h, read-out: IC50 Leishmania donovani.
A short description of data set [3]: Cytotoxicity against L6 cells. Particulars: rat. It counts as cell-based, rat.
A further data set deals with HepG2:CD81 cells. Nature of the data set: Toxicity to hepatoma cells. It is filed as cell-based. The settings on record: FC (7-AAD) or IFA (DAPI).
Data set [4] concerns the target mycobacterial InhA (MtFabI) enzyme. The settings on record: read-out: Ki InhA (MtFabI); competitive inhibition; cited from earlier work.
The subject of another data set is L6 cells. Nature of the data set: Cytotoxicity against L6 cells. It counts as cell-based, rat. Particulars: highest test concentration 90 μg/ml.
The next data set concerns LS development. The settings on record: cited from earlier work.
The subject of data set [5] is late liver phases of P. berghei. Particulars: cited from earlier work.

The source of these data is article PMC2981824 (Bioorganic & medicinal chemistry, 2010).

Values after ≈ are worked out from the molar mass of the structure shown. Values joined by “and” are separate entries in the source; they are usually repeats but may differ in a detail not shown here. Equal entries are not always repeated.

For orientation: IC50 means the concentration that inhibits the measured activity by half. One may read the Ki as a measure of affinity in units of concentration, obtained from inhibition or displacement. Turning to `CCCCCCCCCCCCCC#CC(=O)O` [2-HDA, 2-Hexadecynoic acid], the IC50 with P. falciparum K1 strain was 10.4 µg/mL (≈ 41.2 µM); in data set [1], 15.3 µg/mL (≈ 60.6 µM); in the data set with P. yoelii liver stages, 4.88 µg/mL (≈ 19.3 µM); on PfFabI it was 1510 nM; at PfFabZ, 2300 nM; on PfFabG, 13900 nM. The IC50 in data set [2] amounted to 4.5 µg/mL (≈ 17.8 µM). For the same compound, the Ki at PfFabI (cofactor (NADH) varied) is 2580 nM; on PfFabI (substrate (crotonyl-CoA) varied), 2890 nM and 2900 nM; on PfFabG (Ki PfFabG, cofactor NADPH varied), 6000 nM; in data set [4] it was 2100 ± 600 nM. The “Inhibition type PfFabI” value on PfFabI (with respect to crotonyl-CoA and the cofactor NADH) is on record as “non-competitive”. For the same compound, the “Inhibition type PfFabZ” value at PfFabZ (with respect to the substrate) is recorded as “competitive”. Also, the figures for the “Inhibition type PfFabG” value on PfFabG (cofactor NADPH varied) and at PfFabG (substrate acetoacetyl-CoA varied) were “non-competitive” and “competitive”, respectively. This compound had an IC50 at 72 h in data set [3] of 85.9 µg/mL (≈ 340 µM). For the same compound, the “Toxicity against HepG2:CD81 hepatoma cells (in words)” value in the data set on HepG2:CD81 cells is on record as “non-toxic”.

As for `CCCCCCCCCCC#CCCCC(=O)O` [5-HDA, 5-Hexadecynoic acid], the IC50 against PfFabG is above 396000 nM. The “Toxicity against L6 cells (in words)” value with L6 cells is reported as “completely non-toxic”.

At PfFabG, `CCCCCCCCCC#CCCCCC(=O)O` [6-HDA, 6-Hexadecynoic acid] showed an IC50 above 396000 nM.

Consider `CCCCCCC#CCCCCCCCC(=O)O` [9-HDA, 9-Hexadecynoic acid], for which the IC50 in the data set on P. falciparum K1 strain was 10.3 µg/mL (≈ 40.8 µM); against PfFabG, above 396000 nM.

Consider `CCCCCCCCCCCCCCCC(=O)O` [PA, Palmitic acid, reference compound], for which the IC50 at PfFabI and at PfFabG was above 390000 nM throughout.

As for `Oc1c(Cl)cc(Cl)c(Cl)c1Cc1c(O)c(Cl)cc(Cl)c1Cl` [hexachlorophene], the “IC50 LS development in vitro” value with LS development was 1.95 µg/mL (≈ 4.79 µM). Besides, the IC50 with LS development (read-out: IC50 LS development in vitro) was 4800 nM.

For the compound `Oc1cc(Cl)ccc1Oc1ccc(Cl)cc1Cl` [triclosan], the “IC50 late liver phases of P. berghei” value in [5] was 11.4 µg/mL. In [5] (read-out: IC50 late liver phases of P. berghei), the IC50 was 39400 nM.
